Laboratory results as given in PMC6017874, “Synthesis of New C- and N-β-D-Glucopyranosyl Derivatives of Imidazole, 1,2,3-Triazole and Tetrazole, and Their Evaluation as Inhibitors of Glycogen Phosphorylase” (Molecules : A Journal of Synthetic Chemistry and Natural …, 2018).
Like-named read-outs stand apart in the source and are kept apart here. Values belong to the molecule of their own block, whether it stands above or below them.

Key:
[1] = biological target: T1, rabbit muscle glycogen phosphorylase b (RMGPb) (Oryctolagus cuniculus, UniProt P00489); experiment: Inhibition of rabbit muscle glycogen phosphorylase b (enzyme kinetic assay); type: biochemical; design: key to Inhibition: N.I.: no inhibition at 625 μM concentration; settings: for Inhibition: N.I. = no inhibition at 625 μM concentration; for inhibition of RMGPb (in words): investigated concentration range, max 625 μM
T1 sequence (P00489 1-843): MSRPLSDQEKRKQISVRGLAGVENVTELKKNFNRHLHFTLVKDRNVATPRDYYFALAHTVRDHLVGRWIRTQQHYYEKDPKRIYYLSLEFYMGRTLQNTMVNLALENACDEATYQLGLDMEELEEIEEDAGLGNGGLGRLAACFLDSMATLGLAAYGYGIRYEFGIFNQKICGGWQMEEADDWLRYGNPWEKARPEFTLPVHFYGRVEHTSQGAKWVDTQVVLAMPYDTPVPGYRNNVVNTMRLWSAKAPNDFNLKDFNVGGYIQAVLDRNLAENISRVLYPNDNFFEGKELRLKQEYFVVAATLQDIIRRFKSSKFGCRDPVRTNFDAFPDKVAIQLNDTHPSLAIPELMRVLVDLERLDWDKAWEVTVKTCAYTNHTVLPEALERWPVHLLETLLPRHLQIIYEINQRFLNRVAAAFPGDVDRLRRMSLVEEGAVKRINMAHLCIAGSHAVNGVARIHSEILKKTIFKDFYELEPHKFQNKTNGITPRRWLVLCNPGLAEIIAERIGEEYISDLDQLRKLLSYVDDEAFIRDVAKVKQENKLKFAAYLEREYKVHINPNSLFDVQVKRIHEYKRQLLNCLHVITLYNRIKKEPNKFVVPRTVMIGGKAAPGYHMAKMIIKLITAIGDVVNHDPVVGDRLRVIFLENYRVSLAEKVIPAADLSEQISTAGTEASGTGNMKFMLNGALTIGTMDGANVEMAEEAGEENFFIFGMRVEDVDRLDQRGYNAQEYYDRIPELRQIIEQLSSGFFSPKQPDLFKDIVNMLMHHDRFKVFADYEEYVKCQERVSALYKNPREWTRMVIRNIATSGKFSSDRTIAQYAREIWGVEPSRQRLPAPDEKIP
Procedure: The new compounds were assayed against rabbit muscle glycogen phosphorylase b enzyme (RMGPb) as described earlier and the results are collected in Table 5. The inefficiency of C-glucopyranosyl 1,2,3-triazoles 5 (entries 4–6) as compared to the micromolar inhibition of the N-glucopyranosyl counterparts II in Table 2 came as a surprise, since the size of the heterocycle and the position of the H-bond donor and acceptor sites of the ring must not have been altered by the interchange of the substituents. A comparison of the inhibitory efficiency of N-benzoyl-β-D-gluco-pyranosylamine Ib (entry 1) with its “reversed” counterpart N-phenyl-2,6-anhydro-D-glycero-D-gulo-heptonamide 20 (shown in entry 3) results in a ratio of 38–67 (~53 as an average).

[2] = biological target: T1, rabbit muscle glycogen phosphorylase b (RMGPb); settings: cited from earlier work

Inhibition ([1]; RMGPb): N.I.
Ki ([1]; RMGPb, inhibition constants of IIb multiplied by the average factor ~53, read-out: predicted inhibition constant): 7900 to 8500 µM
Compound: OC[C@H]1O[C@@H](c2cn(-c3ccccc3)nn2)[C@H](O)[C@@H](O)[C@@H]1O [5a, 1-Phenyl-4-(β-D-glucopyranosyl)-1H-1,2,3-triazole]

Inhibition ([1]; RMGPb): N.I.
melting point: 224 to 225 °C
Compound: OC[C@H]1O[C@@H](c2cn(-c3ccc4ccccc4c3)nn2)[C@H](O)[C@@H](O)[C@@H]1O [5b, 1-(Naphthalen-2-yl)-4-(β-D-glucopyranosyl)-1H-1,2,3-triazole]

Inhibition ([1]; RMGPb): N.I.
Compound: OC[C@H]1O[C@@H](c2cn(-c3cccc4ccccc34)nn2)[C@H](O)[C@@H](O)[C@@H]1O [5c, 1-(Naphthalen-1-yl)-4-(β-D-glucopyranosyl)-1H-1,2,3-triazole]

Inhibition ([1]; RMGPb): N.I.
Compound: OC[C@H]1O[C@@H](c2nnn(-c3ccccc3)n2)[C@H](O)[C@@H](O)[C@@H]1O [13a, 2-Phenyl-5-(β-D-glucopyranosyl)-2H-tetrazole]

Inhibition ([1]; RMGPb): N.I.
Compound: Cn1nnc([C@@H]2O[C@H](CO)[C@@H](O)[C@H](O)[C@H]2O)n1 [13e, 2-Methyl-5-(β-D-glucopyranosyl)-2H-tetrazole]

Inhibition ([1]; RMGPb): N.I.
Compound: Cn1nnnc1[C@@H]1O[C@H](CO)[C@@H](O)[C@H](O)[C@H]1O [14e, 1-Methyl-5-(β-D-glucopyranosyl)-1H-tetrazole]

IC50 ([1]; RMGPb): 600 µM
Ki ([1]; RMGPb, calculated from IC50 by the Cheng-Prusoff equation, read-out: calculated Ki): 327 µM
inhibition of RMGPb (in words) [1]: very weak inhibition
Compound: OC[C@H]1O[C@@H](n2nnc(-c3ccccc3)n2)[C@H](O)[C@@H](O)[C@@H]1O [18a, 5-Phenyl-2-(β-D-glucopyranosyl)-2H-tetrazole]

Inhibition ([1]; RMGPb): N.I.
Compound: Cc1nnn([C@@H]2O[C@H](CO)[C@@H](O)[C@H](O)[C@H]2O)n1 [18e, 5-Methyl-2-(β-D-glucopyranosyl)-2H-tetrazole]

Inhibition ([1]; RMGPb): N.I.
Compound: OC[C@H]1O[C@@H](n2nnnc2-c2ccccc2)[C@H](O)[C@@H](O)[C@@H]1O [19a, 5-Phenyl-1-(β-D-glucopyranosyl)-1H-tetrazole]

Compound: Cc1nnc([C@@H]2O[C@H](CO)[C@@H](O)[C@H](O)[C@H]2O)o1 [IIIa]
Ki [2]: 212 µM

Compound: OC[C@H]1O[C@@H](c2nnc(-c3ccccc3)o2)[C@H](O)[C@@H](O)[C@@H]1O [IIIb]
inhibition at 625 μM ([2]; RMGPb): 10% at 625 μM [37]

Compound: OC[C@H]1O[C@@H](c2nnc(-c3ccc4ccccc4c3)o2)[C@H](O)[C@@H](O)[C@@H]1O [IIIc]
inhibition at 625 μM ([2]; RMGPb): 10% at 625 μM [37]

Compound: Cc1nc([C@@H]2O[C@H](CO)[C@@H](O)[C@H](O)[C@H]2O)no1 [IVa]
inhibition at 625 μM (in words) ([2]; RMGPb): No inh. at 625 μM [38]

Compound: OC[C@H]1O[C@@H](c2noc(-c3ccccc3)n2)[C@H](O)[C@@H](O)[C@@H]1O [IVb]
inhibition at 625 μM ([2]; RMGPb): 10% at 625 μM [38]

Compound: OC[C@H]1OC(c2nnn[nH]2)[C@H](O)[C@@H](O)[C@@H]1O (some centres unmarked) [VIII, 5-Glucosyltetrazole]
inhibition at 625 μM (in words) ([2]; RMGPb): No inh. at 625 μM [35]
inhibition of RMGPb (in words) [2]: inactive

Inhibition ([1]; RMGPb): N.I.
inhibition of RMGPb (in words) [1]: non-inhibitory
melting point: 273 to 274 °C
Compound: OC[C@H]1O[C@@H](n2cnc(-c3ccccc3)c2)[C@H](O)[C@@H](O)[C@@H]1O [compound 8, 1-(β-D-Glucopyranosyl)-4-phenyl-1H-imidazole]

Compound: O=C(Nc1ccccc1)[C@@H]1O[C@H](CO)[C@@H](O)[C@H](O)[C@H]1O [compound 20, N-phenyl-2,6-anhydro-D-glycero-D-gulo-heptonamide, reference compound]
average ratio of inhibitory efficiency of Ib to its reversed counterpart 20 ([1]; RMGPb, average of the 38–67 ratio): ~ 53
ratio of inhibitory efficiency of Ib to its reversed counterpart 20 ([1]; RMGPb, from literature Ki values of Ib and 20): 38–67
Ki ([2]; RMGPb): 5400 µM
